Test systems include NCI-H226; DU-145; ACHN; Hs-578T; DLD-1; RXF 393; OVCAR-5; EKVX; SN12C; NCI-H23; SK-MEL-28; A549; U-251; MDA-MB-231; MDA-N; K562; OVCAR-8; SF-539; SF-295; M19-MEL.
Holding throughout (assay): NCI anticancer screen, dose series, 48 h

Data on twelve molecules can be found in ChEMBL document CHEMBL1201862, “PubChem BioAssay data set” (2004).

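Cells were grown in 96-well plates and exposed to each compound for 48 hours at five concentrations; endpoints were interpolated linearly between bracketing concentrations, or set to the highest concentration if not reached. GI50 marks 50% less growth.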 Active and inactive are the calls of the source. Rule as the data show it: active = GI50 up to about 1.1 µM and inactive = higher.

Turning to `O=C1C=C(Nc2cccnc2)c2ccccc2C1=O`, the GI50 with NCI-H226 is 25.6 µM (inactive); with DU-145, 4.15 µM (inactive); in the assay with ACHN, 7.73 µM (inactive); with Hs-578T, 2.4 µM (inactive); in the assay with DLD-1, 5.11 µM (inactive); with RXF 393, 13.1 µM (inactive). Besides, the GI50 is 8.13 µM (inactive) in the assay with OVCAR-5; 12.2 µM (inactive) in the assay on EKVX; 8.02 µM (inactive) with SN12C; 2.8 µM (inactive) in the assay with NCI-H23; 5.58 µM (inactive) in the assay on SK-MEL-28; 3.65 µM (inactive) in the assay on A549. Also, the GI50 with U-251 was 9.25 µM (inactive); in the assay on MDA-MB-231 it was 4.61 µM (inactive); in the assay with MDA-N, 0.372 µM (active); in the assay on K562, 1.76 µM (inactive); in the assay on OVCAR-8 it was 7.55 µM (inactive); in the assay with SF-539 it was 2.97 µM (inactive). In the assay on SF-295, the GI50 is 2.92 µM (inactive).

Regarding `COc1cc2c(cc1OC)C1Cc3cc(OC)c(OC)cc3N1CC2` (centres undefined), the GI50 was 20.3 µM (inactive) in the assay on NCI-H226; 22.3 µM (inactive) in the assay on ACHN; 39.8 µM (inactive) in the assay on DLD-1; > 100 µM (inactive) with OVCAR-5; 27.7 µM (inactive) with EKVX; 75.2 µM (inactive) in the assay with SN12C. The GI50 with NCI-H23 is 29.5 µM (inactive); in the assay on SK-MEL-28, 32.1 µM (inactive); with A549, 26.9 µM (inactive); in the assay with U-251, 35.4 µM (inactive); in the assay on K562, 27.5 µM (inactive); in the assay on OVCAR-8 it was 34.8 µM (inactive). In addition, the figures for the GI50 with M19-MEL and with SF-295 were 13.3 µM (inactive) and 33.8 µM (inactive), respectively.

For `CN(C)c1n/c(=N/c2ccc3ccccc3c2)ss1`, the GI50 is 13.4 µM (inactive) in the assay with NCI-H226; 20.6 µM (inactive) in the assay on ACHN; 15.4 µM (inactive) in the assay with DLD-1; 41.9 µM (inactive) with RXF 393; 32.9 µM (inactive) in the assay with SN12C; 34.8 µM (inactive) in the assay on SK-MEL-28. The GI50 in the assay on A549 was 12.2 µM (inactive); with U-251, 6.22 µM (inactive); in the assay on K562, 15.1 µM (inactive); in the assay on OVCAR-8, 19.5 µM (inactive); with SF-539, 78.9 µM (inactive).

Regarding `COc1ccc(-c2oc3c(OC)c(OC)cc(O)c3c(=O)c2OC)cc1`, the GI50 in the assay on NCI-H226 is > 100 µM (inactive); with DU-145, > 100 µM (inactive); with ACHN, > 100 µM (inactive); with Hs-578T it was 58.3 µM (inactive); in the assay with RXF 393, > 100 µM (inactive); with OVCAR-5, > 100 µM (inactive). The GI50 in the assay on EKVX is > 100 µM (inactive); in the assay on SN12C, > 100 µM (inactive); in the assay on NCI-H23, > 100 µM (inactive); in the assay with SK-MEL-28, > 100 µM (inactive); with A549, > 100 µM (inactive); in the assay with U-251 it was 70.8 µM (inactive). Also, the GI50 is 69.2 µM (inactive) with MDA-MB-231; > 100 µM (inactive) with MDA-N; > 100 µM (inactive) with K562; > 100 µM (inactive) with OVCAR-8; 28.8 µM (inactive) in the assay on SF-539; > 100 µM (inactive) in the assay on SF-295.

`O=C1C(Cl)=C(NCCN2CCOCC2)C(=O)c2ncccc21`: the GI50 with NCI-H226 is 2.1 µM (inactive); in the assay with DU-145, 1.66 µM (inactive); with ACHN, 2.82 µM (inactive); in the assay with Hs-578T it was 2.11 µM (inactive); in the assay on RXF 393 it was 1.95 µM (inactive); with OVCAR-5, 2.15 µM (inactive). The GI50 in the assay on EKVX was 1.75 µM (inactive); in the assay with SN12C, 1.73 µM (inactive); in the assay on NCI-H23, 1.62 µM (inactive); in the assay on SK-MEL-28, 1.84 µM (inactive); with A549, 2 µM (inactive); with U-251 it was 1.66 µM (inactive). Also, the GI50 in the assay on MDA-MB-231 was 2.08 µM (inactive); in the assay with MDA-N, 0.2 µM (active); in the assay on K562 it was 0.378 µM (active); in the assay with OVCAR-8 it was 1.53 µM (inactive); with SF-539, 1.72 µM (inactive); in the assay on SF-295, 1.82 µM (inactive).

Consider `CCO/C=N\c1c(C#N)c(-c2ccc(Cl)cc2)cn1-c1ccc(C)cc1`, for which the GI50 in the assay with NCI-H226 is > 100 µM (inactive); with DU-145, > 100 µM (inactive); in the assay with ACHN, > 100 µM (inactive); in the assay on Hs-578T, 95.9 µM (inactive); in the assay with RXF 393, > 100 µM (inactive); in the assay with OVCAR-5, > 100 µM (inactive). Also, the GI50 in the assay on EKVX, with SN12C, in the assay with NCI-H23, with SK-MEL-28, in the assay with A549 and in the assay on U-251 was > 100 µM (inactive) in each case. In addition, the GI50 in the assay with MDA-MB-231, in the assay on MDA-N, in the assay on K562, with OVCAR-8, with SF-539 and in the assay on SF-295 was > 100 µM (inactive) throughout.

As for `COC(=O)C(Cc1ccccc1)NC(=O)Cn1ccnc1[N+](=O)[O-]` (centres undefined), the GI50 with NCI-H226 was 34 µM (inactive); with ACHN, > 100 µM (inactive); with RXF 393 it was > 100 µM (inactive); with OVCAR-5, > 100 µM (inactive); in the assay with EKVX it was > 100 µM (inactive); with SN12C, > 100 µM (inactive). In addition, the GI50 with NCI-H23, in the assay with SK-MEL-28, in the assay on A549, in the assay with U-251, in the assay on K562 and in the assay with OVCAR-8 was > 100 µM (inactive) each time. Further, the values for the GI50 with M19-MEL, in the assay with SF-539 and in the assay on SF-295 were 95.3 µM (inactive), > 100 µM (inactive) and > 100 µM (inactive), respectively.

As to `CC1(C)C2CCC3(C2)CS(=O)(=O)N2OC231` (centres undefined), the GI50 in the assay with ACHN is 15.9 µM (inactive); in the assay on DLD-1, 23.7 µM (inactive); in the assay with OVCAR-5, 23.7 µM (inactive); with EKVX, 15.7 µM (inactive); in the assay on SN12C, 16.9 µM (inactive); with NCI-H23 it was 16.6 µM (inactive). Besides, the GI50 in the assay on SK-MEL-28 is 25.4 µM (inactive); with A549 it was > 100 µM (inactive); in the assay on U-251, 34.4 µM (inactive); in the assay with K562, 17.4 µM (inactive); in the assay with OVCAR-8, 24.8 µM (inactive); in the assay on M19-MEL, 15.7 µM (inactive). In addition, the GI50 with SF-539 was 18.5 µM (inactive); in the assay on SF-295, > 100 µM (inactive).

As for `COc1cc2c(cc1O)NC(=O)[C@@H]1CCCN1C2=O`, the GI50 in the assay on NCI-H226 was > 100 µM (inactive); in the assay with DU-145, > 100 µM (inactive); in the assay on ACHN it was > 100 µM (inactive); with Hs-578T it was 24 µM (inactive); with RXF 393 it was > 100 µM (inactive); in the assay with OVCAR-5, > 100 µM (inactive). The GI50 in the assay with EKVX, with SN12C, with NCI-H23, in the assay on SK-MEL-28, in the assay with A549 and with U-251 was > 100 µM (inactive) in each case. Moreover, the GI50 with MDA-MB-231, in the assay with MDA-N, in the assay on K562, with OVCAR-8, in the assay with SF-539 and in the assay on SF-295 was > 100 µM (inactive) in each case.

For the molecule `CC1(C)N=c2c(ncn2CCCO)=C(C(N)=O)N1`, the GI50 in the assay on NCI-H226, with DU-145, in the assay on ACHN, in the assay on Hs-578T, in the assay on RXF 393 and in the assay with OVCAR-5 was > 100 µM (inactive) each time. Also, the GI50 in the assay on EKVX, with SN12C, with NCI-H23, in the assay with SK-MEL-28, with A549 and with U-251 was > 100 µM (inactive) throughout. The GI50 in the assay with MDA-MB-231, in the assay with MDA-N, in the assay with K562, in the assay with OVCAR-8, in the assay on SF-539 and in the assay with SF-295 was > 100 µM (inactive) each time.

With `COc1cc(C(=O)/C=C/c2ccc(OCC#N)cc2)cc(OC)c1OC`, the GI50 in the assay on NCI-H226 is 23.2 µM (inactive); with DU-145, 28.1 µM (inactive); with ACHN, 23.5 µM (inactive); in the assay with Hs-578T, 25.1 µM (inactive); with RXF 393 it was 18.1 µM (inactive); with OVCAR-5, 47.5 µM (inactive). Besides, the GI50 in the assay with EKVX was 50.8 µM (inactive); in the assay with SN12C, 18.9 µM (inactive); with NCI-H23 it was 19.5 µM (inactive); in the assay on SK-MEL-28, 17.3 µM (inactive); in the assay on A549, 21.4 µM (inactive); in the assay with U-251, 18 µM (inactive). Besides, the GI50 was > 10 µM (inactive) in the assay on MDA-MB-231; 38 µM (inactive) in the assay with MDA-N; 24.5 µM (inactive) in the assay on K562; 29.5 µM (inactive) with OVCAR-8; 17.3 µM (inactive) in the assay with SF-539; 46.2 µM (inactive) with SF-295.

As to `N=c1sc2ccccc2n1CC[S-].c1ccc2c(c1)sc1[n+]2CCS1`, the GI50 in the assay on NCI-H226 was 16.7 µM (inactive); in the assay on DU-145, 21.2 µM (inactive); with ACHN, 16.3 µM (inactive); in the assay with Hs-578T it was 42.6 µM (inactive); with RXF 393, 20.7 µM (inactive); in the assay on OVCAR-5, 20.5 µM (inactive). Moreover, the GI50 is 22 µM (inactive) in the assay on EKVX; 21.1 µM (inactive) in the assay on SN12C; 16.1 µM (inactive) in the assay with NCI-H23; 18.7 µM (inactive) with SK-MEL-28; 16.9 µM (inactive) with A549; 15.5 µM (inactive) in the assay on U-251. Moreover, the GI50 is 17 µM (inactive) in the assay on MDA-MB-231; 37.1 µM (inactive) in the assay with MDA-N; 16.7 µM (inactive) in the assay on K562; 17.1 µM (inactive) in the assay with OVCAR-8; 6.58 µM (inactive) in the assay with SF-539; 17.4 µM (inactive) with SF-295.
